The results in this text go back to patent publication US4217450A, “Imidazoledicarboxylic acid substituted cephalosporin derivatives” (Ajinomoto Company, Incorporated, priority 1977, dated 1980).

In the assay the test system is Pseudomonas aeruginosa AJ 2116. The assay is described as follows: MIC using Pseudomonas aeruginosa AJ 2116 as the test organism. The format is cell-based. To be noted: AJ2116, read-out: MIC (Minimum Inhibitory concentration).

≈ marks a conversion by molar mass, not a printed value. Structures can show the parent of a compound that is named as a salt.

Source text: Comparative MIC's for compounds using Pseudomonas aeruginosa AJ 2116 as the test organism are as follows: "MIC" represents the Minimum INhibitory concentration in mcg./ml of the compound required to inhibit the growth of the test organism described.

`CC1(C)S[C@@H]2[C@H](NC(=O)[C@H](NC(=O)c3nc(N)[nH]c3C(=O)O)c3ccccc3)C(=O)N2[C@H]1C(=O)O` [VII, D-α-(2-amino-4-carboxyimidazole-5-carboxamido)benzylpenicillin]: the MIC was 50 µg/mL (≈ 99.5 µM).

As for `CC1(C)S[C@@H]2[C@H](NC(=O)[C@H](NC(=O)c3nc(Cl)[nH]c3C(=O)O)c3ccccc3)C(=O)N2[C@H]1C(=O)O` [VI, D-α-(2-chloro-4-carboxyimidazole-5-carboxamido)benzylpenicillin], the MIC was 50 µg/mL (≈ 95.8 µM). For `Cc1nc(C(=O)N[C@@H](C(=O)N[C@@H]2C(=O)N3[C@@H]2SC(C)(C)[C@@H]3C(=O)O)c2ccccc2)c(C(=O)O)[nH]1` [V, D-α-(2-methyl-4-carboxyimidazole-5-carboxamido) benzylpenicillin] the value was 50 µg/mL (≈ 99.7 µM); for `CC1(C)S[C@@H]2[C@H](NC(=O)[C@H](NC(=O)c3nc(O)[nH]c3C(=O)O)c3ccccc3)C(=O)N2[C@H]1C(=O)O` [III, D-α-(2-hydroxy-4-carboxyimidazole-5-carboxamido)benzylpenicillin], 25 µg/mL (≈ 49.7 µM). For `NC(=O)c1cc[n+](CC2=C(C(=O)[O-])N3C(=O)[C@@H](NC(=O)[C@H](NC(=O)c4nc[nH]c4C(=O)O)c4ccccc4)[C@H]3SC2)cc1` [II, 7-β-[D-(-)-α-(4-carboxyimidazole-5-carbox-amido)-phenylacetoamido]-3-(4-carbamoylpyridinium)methyl-3-cephem-4-carboxylic acid.mixture of K and Na salt.trihydrate] the value was 12.5 µg/mL.

For `Cn1nnnc1SCC1=C(C(=O)O)N2C(=O)[C@@H](NC(=O)[C@H](NC(=O)c3nc[nH]c3C(=O)O)c3ccccc3)[C@H]2SC1` [VIII, 7-β-[-(-)-α-(4-carboxyimidazole-5-carboxamido)phenylacetamido]-3-[[(1-methyl-1H-tetrazol-5-yl)thio]methyl]-3-cephem-4-carboxylic acid], the MIC came out at 50 µg/mL (≈ 83.4 µM).

As for `CC1(C)S[C@@H]2[C@H](NC(=O)[C@H](NC(=O)c3nc(S)[nH]c3C(=O)O)c3ccccc3)C(=O)N2[C@H]1C(=O)O` [IV, D-α-(2-mercapto-4-carboxyimidazole-5-carboxamido)benzylpenicillin], the MIC was 50 µg/mL (≈ 96.2 µM). For `CC1(C)S[C@@H]2[C@H](NC(=O)[C@H](NC(=O)c3nc[nH]c3C(=O)O)c3ccccc3)C(=O)N2[C@H]1C(=O)O` [I, D-α-(4-carboxyimidazole-5-carboxyamido)benzylpenicillin disodium salt monohydrate] the value was 12.5 µg/mL; for `O=C([O-])C1=C(C[n+]2ccc(CCS(=O)(=O)O)cc2)CS[C@@H]2[C@H](NC(=O)[C@H](NC(=O)c3nc[nH]c3C(=O)O)c3ccccc3)C(=O)N12` [IX, 7-β-[D-(-)-α-(4-carboxyimidazole-5-carboxamido)phenylacetamido]-3-(4-β-sulphoethylpyridinium)-methyl-3-cephem-4-carboxylic acid], 12.5 µg/mL (≈ 18.6 µM); for `CC1(C)S[C@@H]2[C@H](NC(=O)C(C(=O)O)c3ccccc3)C(=O)N2[C@H]1C(=O)O` (some centres unmarked) [Carbenicillin, reference compound], 100 µg/mL (≈ 264 µM). For `CC1(C)S[C@@H]2[C@H](NC(=O)[C@H](N)c3ccccc3)C(=O)N2[C@H]1C(=O)O` [ampicillin, reference compound] the value was > 500 µg/mL.
